MIC, IC50 and selectivity ratio data for eight compounds are collected here from ChEMBL document CHEMBL3232804, “Synthesis and evaluation of new diaryl ether and quinoline hybrids as potential antiplasmodial and antimicrobial agents” (Bioorg Med Chem Lett, 2014).

Structures are written as SMILES. Converted amounts (≈) assume the structure as drawn. Where only a bound is given, the exact number is not on record here.

In data set [1] the test system is Candida albicans. Kind of data set: Antifungal activity against Candida albicans clinical isolate after 24 to 48 hrs by standard broth microdilution method. Type of data set: functional. For orientation: Dilution methods test growth across graded concentrations, often in twofold steps.
Data set [2] has as its system Staphylococcus aureus. Kind of data set: Antimicrobial activity against Staphylococcus aureus ATCC 25923 after 24 hrs by standard broth microdilution method. Particulars: ATCC 25923, 24 h. The data set is classed as functional.
The subject of data set [3] is Escherichia coli. Kind of data set: Antimicrobial activity against Escherichia coli ATCC 9637 after 24 hrs by standard broth microdilution method. The data set is classed as functional. Conditions: ATCC 9637, 24 h.
In data set [4] the test system is Plasmodium falciparum. Put plainly: Antiplasmodial activity against chloroquine-sensitive Plasmodium falciparum 3D7 infected after 72 hrs by Malaria SYBR Green I-staining based fluorescence assay. Type of data set: functional, organism-based. Particulars: 3D7, 72 h.
Data set [5] deals with Aspergillus fumigatus. Kind of data set: Antifungal activity against Aspergillus fumigatus clinical isolate after 72 to 96 hrs by standard broth microdilution method. The data set is classed as functional.
Data set [6] deals with Cryptococcus neoformans. Put plainly: Antifungal activity against Cryptococcus neoformans clinical isolate after 24 to 48 hrs by standard broth microdilution method. The data set is classed as functional.
Data set [7] has as its system Trichophyton mentagrophytes. Kind of data set: Antifungal activity against Trichophyton mentagrophytes clinical isolate after 72 to 96 hrs by standard broth microdilution method. The data set is classed as functional.
For data set [8], the system named is Plasmodium falciparum. Kind of data set: Antiplasmodial activity against chloroquine-resistant Plasmodium falciparum K1 infected after 72 hrs by Malaria SYBR Green I-staining based fluorescence assay. Type of data set: functional, organism-based. Particulars: K1, 72 h.
Data set [9] deals with Klebsiella pneumoniae. Kind of data set: Antimicrobial activity against Klebsiella pneumoniae ATCC 27736 after 24 hrs by standard broth microdilution method. Type of data set: functional. Conditions: ATCC 27736, 24 h.
Data set [10] concerns Sporothrix schenckii. Put plainly: Antifungal activity against Sporothrix schenckii clinical isolate after 72 to 96 hrs by standard broth microdilution method. Type of data set: functional.
Data set [11] relates to Pseudomonas aeruginosa. Kind of data set: Antimicrobial activity against Pseudomonas aeruginosa ATCC BAA-427 after 24 hrs by standard broth microdilution method. Type of data set: functional. Conditions: ATCC BAA-427, 24 h.
Data set [12] deals with Candida parapsilosis. Put plainly: Antifungal activity against Candida parapsilosis ATCC […] after 72 to 96 hrs by standard broth microdilution method. The data set is classed as functional. Particulars: Lodderomyces parapsilosis.
Data set [13] is described as follows: Selectivity index, ratio of IC50 for african green monkey Vero cells to IC50 for chloroquine-sensitive Plasmodium falciparum 3D7. Type of data set: toxicity, cell-based. Particulars: read-out: Ratio IC50.

Broadly, the MIC is the smallest concentration in the dilution series that meets the test's criterion for growth inhibition. In general, IC50 refers to the concentration that inhibits the measured activity by half. On to `COc1ccc(Oc2ccc(N/C(=N/c3ccc(Cl)cc3)NCCNc3ccnc4cc(Cl)ccc34)cc2)cc1`, for which the MIC in data set [1] was found to be 12.5 µg/mL (≈ 21.8 µM); in data set [2] it was 6.25 µg/mL (≈ 10.9 µM); in data set [3], 6.25 µg/mL (≈ 10.9 µM); in data set [5] it was 25 µg/mL (≈ 43.7 µM); in [6], 25 µg/mL (≈ 43.7 µM); in data set [7], 12.5 µg/mL (≈ 21.8 µM). For the same compound, the MIC was 12.5 µg/mL (≈ 21.8 µM) in data set [9], 6.25 µg/mL (≈ 10.9 µM) in data set [10], over 50 µg/mL in data set [11] and 12.5 µg/mL (≈ 21.8 µM) in data set [12]. For the same compound, the results for the 50% inhibitory concentration (IC50) in [4] and in data set [8] were 69 nM and 105 nM, respectively. In addition, the selectivity ratio in data set [13] worked out at 122.
Take `Clc1cccc(/N=C(\NCCNc2ccnc3cc(Cl)ccc23)Nc2ccccc2Oc2cc(Cl)ccc2Cl)c1`: the MIC in data set [1] was 50 µg/mL (≈ 81.8 µM); in [2], 1.56 µg/mL (≈ 2.55 µM); in data set [3], 6.25 µg/mL (≈ 10.2 µM); in data set [5], over 50 µg/mL; in [6] it was over 50 µg/mL; in [7] it was 50 µg/mL (≈ 81.8 µM). For the same compound, the MIC in data set [9] is over 50 µg/mL; in data set [10] it was 50 µg/mL (≈ 81.8 µM); in data set [11] it was over 50 µg/mL; in [12], 50 µg/mL (≈ 81.8 µM). Also, the IC50 in [4] was found to be 69.6 nM; in data set [8], 422 nM. Also, in data set [13], the selectivity ratio was 56.2.
With `COC(=O)/C(C)=C/c1ccc(Oc2ccc(N/C(=N/c3cccc(Cl)c3)NCCCNc3ccnc4cc(Cl)ccc34)cc2)cc1`, the MIC is over 50 µg/mL in [1]; 6.25 µg/mL (≈ 9.55 µM) in [2]; 6.25 µg/mL (≈ 9.55 µM) in data set [3]; over 50 µg/mL in data set [5]; over 50 µg/mL in [6]; 50 µg/mL (≈ 76.4 µM) in data set [7]. The minimal inhibitory concentration (MIC) in [9] was 50 µg/mL (≈ 76.4 µM); in data set [10] it was 50 µg/mL (≈ 76.4 µM); in [11] it was over 50 µg/mL; in data set [12] it was 50 µg/mL (≈ 76.4 µM). The concentration for half-maximal inhibition (IC50) in [4] worked out at 78.2 nM; in data set [8], 71.4 nM. In data set [13], the selectivity ratio was determined as 21.9.
For the compound `Clc1ccc(Cl)c(Oc2ccccc2N/C(=N/c2ccccc2)NCCNc2ccnc3cc(Cl)ccc23)c1`, the MIC in data set [1] was 50 µg/mL (≈ 86.7 µM); in [2], 12.5 µg/mL (≈ 21.7 µM); in data set [3], 25 µg/mL (≈ 43.3 µM); in [5] it was over 50 µg/mL; in [6] it was over 50 µg/mL; in [7], 25 µg/mL (≈ 43.3 µM). Moreover, the MIC is 50 µg/mL (≈ 86.7 µM) in data set [9], 50 µg/mL (≈ 86.7 µM) in data set [10], over 50 µg/mL in [11] and 50 µg/mL (≈ 86.7 µM) in [12]. Besides, the figures for the IC50 in data set [4] and in data set [8] were 42.5 nM and 95.8 nM, respectively. In data set [13], the selectivity ratio is 173.
For the compound `COc1ccc(Oc2ccccc2N/C(=N/c2cccc(Cl)c2)NCCCNc2ccnc3cc(Cl)ccc23)cc1`, the MIC in [1] is 6.25 µg/mL (≈ 10.7 µM); in [2], 3.12 µg/mL (≈ 5.32 µM); in [3], 3.12 µg/mL (≈ 5.32 µM); in data set [5] it was over 50 µg/mL; in data set [6], 50 µg/mL (≈ 85.2 µM); in data set [7] it was 6.25 µg/mL (≈ 10.7 µM). Further, the MIC is 25 µg/mL (≈ 42.6 µM) in data set [9], 6.25 µg/mL (≈ 10.7 µM) in data set [10], over 50 µg/mL in data set [11] and 50 µg/mL (≈ 85.2 µM) in [12]. In addition, half-maximal inhibition in data set [4] (IC50) required 369 nM. In addition, the selectivity ratio in data set [13] is 10.4.
`COc1ccc(Oc2ccccc2N/C(=N/c2ccc(Cl)cc2)NCCCNc2ccnc3cc(Cl)ccc23)cc1`: the MIC was over 50 µg/mL in [1]; over 50 µg/mL in data set [2]; over 50 µg/mL in [3]; 50 µg/mL (≈ 85.2 µM) in data set [6]; 50 µg/mL (≈ 85.2 µM) in data set [9]; 25 µg/mL (≈ 42.6 µM) in [10]. Inhibition of growth in data set [11] (MIC) required 50 µg/mL (≈ 85.2 µM). Further, the IC50 is 241 nM in [4] and over 800 nM in data set [8]. Further, the selectivity ratio in [13] is 123.
`COc1ccc(Oc2ccccc2N/C(=N/c2ccc(Cl)cc2)NCCNc2ccnc3cc(Cl)ccc23)cc1`: the MIC was 50 µg/mL (≈ 87.3 µM) in [1]; 12.5 µg/mL (≈ 21.8 µM) in [2]; 50 µg/mL (≈ 87.3 µM) in [3]; 25 µg/mL (≈ 43.7 µM) in data set [6]; over 50 µg/mL in [9]; 12.5 µg/mL (≈ 21.8 µM) in data set [10]. This compound displayed an MIC in data set [11] of over 50 µg/mL. The IC50 in data set [4] stood at 103 nM; in data set [8], 329 nM. For the same compound, the selectivity ratio in data set [13] worked out at 172.
In the case of `COC(=O)/C(C)=C/c1ccc(Oc2ccccc2N/C(=N/c2ccccc2)NCCNc2ccnc3cc(Cl)ccc23)cc1`, the MIC in data set [1], in data set [2], in [3], in data set [5], in [6] and in data set [7] was over 50 µg/mL in each case. Besides, the MIC in data set [9], in data set [10], in data set [11] and in data set [12] was over 50 µg/mL in each case. Moreover, the IC50 was over 800 nM in data set [4] and 168 nM in data set [8].
